Test results published in PMC7694037, “Quinolizidine-Derived Lucanthone and Amitriptyline Analogues Endowed with Potent Antileishmanial Activity” (Pharmaceuticals, 2020).
≈ marks a conversion by molar mass, not a printed value. Like-named read-outs stand apart in the source and are kept apart here.

Columns and labels:
L. donovani = tested on: L. donovani; set-up: method as in PMID 21358812; conditions: ex vivo splenic explant model system; read-out: IC50 against L. donovani; cited from earlier work
[1] = tested on: choline uptake into rat brain synaptosomes; set-up: method as in PMID 6124978; conditions: 1 µM concentration; cited from earlier work
[2] = tested on: Leishmania tropica promastigotes; experiment: Antileishmanial activity against L. tropica promastigotes (MTT assay); conditions: for IC50: 72 h, IC50 ± SD; for Ratio IC50 Miltef./IC50 Compd. (L. tropica): ratio between IC50 of miltefosine and that of each compound, L. tropica promastigotes
Procedure: (§5) Promastigote stage of L. infantum strain MHOM/TN/80/IPT1 (kindly provided by Dr. M. Gramiccia, ISS, Roma) and L. tropica (MHOM/SY/2012/ISS3130) were cultured in RPMI 1640 medium (EuroClone) supplemented with 10% heat-inactivated fetal calf serum (EuroClone, Milan Italy), 20 mM Hepes and 2 mM L-glutamine at 24 °C. […] Compounds were dissolved in DMSO and then diluted with medium to achieve the required concentrations. Drugs were placed in 96 wells round-bottom microplates and seven serial dilutions made. Miltefosine was used as reference anti-Leishmania drug. Parasites were diluted in complete medium to 5 × 10^6 parasites/mL and 100 μL of the suspension was seeded into the plates, incubated at 24 °C for 72 h and then 20 µL of MTT solution (5 mg/mL) was added into each well for 3 h. The plates were then centrifuged, the supernatants were discarded and the resulting pellets were dissolved in 100 µL of lysing buffer consisting of 20% (w/v) of a solution of SDS (Sigma), 40% DMF (Merck, Milan Italy) in H2O. The absorbance was measured spectrophotometrically at a test wavelength of 550 nm and a reference wavelength of 650 nm.

Staphylococcus aureus = tested on: Staphylococcus aureus; set-up: method as in PMID 3653383; conditions: cited from earlier work
[3] = tested on: Mycobacterium tuberculosis; set-up: method as in PMID 3653383; conditions: cited from earlier work
PMA-differentiated THP-1 = experiment: Cytotoxicity against PMA-differentiated THP-1 cells (MTT); format: cell-based, human; conditions: CC50 THP-1 / IC50 L. infantum amastigotes
Procedure: (§1) The cytotoxic concentration (CC50) against THP-1 differentiated into macrophages (Table 3), used for testing the activity against the amastigote stage, is also reported.
(§2) THP-1 cells were plated at 5 × 10^5 cells/mL in 96 wells flat bottom microplates and treated with 0.1 µM PMA for 48 h to achieve differentiation into macrophages. Cells were then treated with serial dilutions of test compounds and cell proliferation evaluated using the MTT assay described for promastigotes.

[4] = as above; format: cell-based, human; conditions: human
Procedure: as §1, §2

Bacillus subtilis = tested on: Bacillus subtilis; set-up: method as in PMID 3653383; conditions: cited from earlier work
Vero-76 cells = experiment: Cytotoxicity against Vero-76 cells (crystal violet staining); format: cell-based, Cercopithecus Aethiops; conditions: for S.I. L. tropica: CC50 Vero-76 / IC50 L. tropica promastigotes; for S.I. L. infantum: CC50 Vero-76 / IC50 L. infantum promastigotes; for selectivity index (SI), range over both Leishmania species: Vero-76 cells vs L. tropica and L. infantum promastigotes
Procedure: (§3) The cytotoxicity of lucanthone was also tested for comparison. […] The relevant selectivity index (SI)—a parameter that quantifies the preferential antileishmanial activity of a compound in relation to mammalian cell toxicity (CC50/IC50)—is tabulated in Table 2. […] The replacement of the 4-methyl substituent with an amino group in compound 14, while preserving good antileishmanial activity, led to a further substantial decrease of cytotoxicity, with a resultantly safer profile (SI = 16.2 and 16.9 for the two Leishmania species).
(§4) Vero-76 cells (ATCC CRL 1587 Cercopithecus Aethiops) were seeded at an initial density of 4 × 10^5 cells/mL in 24-well plates, in culture medium (Dulbecco’s modified eagle’s medium (D-MEM) with L-glutamine, supplemented with fetal bovine serum (FBS), 0.025 g/L kanamycin). Cell cultures were then incubated at 37 °C in a humidified, 5% CO2 atmosphere in the absence or presence of serial dilutions of test compounds. Cell viability was determined after 48–96 h at 37 °C by the Crystal violet staining method. The results are expressed as CC50, which is the concentration of compound necessary to inhibit cell growth by 50%. Each CC50 value is the mean and standard deviation of at least three separate experiments performed in duplicate.

[5] = as above; format: cell-based, Cercopithecus Aethiops; conditions: Cercopithecus aethiops (African green monkey)
Procedure: as §3, §4

[6] = tested on: L. infantum promastigotes; experiment: Antileishmanial activity against L. infantum promastigotes (MTT assay); conditions: for IC50: Leishmania infantum, 72 h, read-out: IC50 L. infantum; for Ratio IC50 Miltef./IC50 Compd. (L. infantum): ratio between IC50 of miltefosine and that of each compound, L. infantum promastigotes
Procedure: as §5

[7] = tested on: intramacrophagic amastigotes of L. infantum; experiment: Intracellular amastigote susceptibility assay in PMA-differentiated THP-1 macrophages; format: cell-based; conditions: Leishmania infantum, read-out: L. infantum Amastigotes IC50
Procedure: Finally, for a better idea of their real value as antileishmanial agents, compounds 14 and 17, displaying the most promising activity against promastigote stage and the highest SI values, together with lucanthone and the corresponding quinolizidine analog 1, were tested against the intramacrophagic amastigote stage of L. infantum.
THP-1 cells (human acute monocytic leukemia) were maintained in RPMI supplemented with 10% FBS (EuroClone), 50 µM 2-mercaptoethanol, 20 mM Hepes and 2 mM glutamine, at 37 °C in 5% CO2. For Leishmania infections, THP-1 cells were plated at 5 × 10^5 cells/mL in 16-chamber Lab-Tek culture slides (Nunc, Milan, Italy) and treated with 0.1 µM phorbol myristate acetate (PMA, Sigma) for 48 h to achieve differentiation into macrophages. Cells were washed and infected with metacyclic L. infantum promastigotes at a macrophage/promastigote ratio of 1/10 for 24 h. Cell monolayers were then washed and incubated in the presence of test compounds for 72 h. Slides were fixed with methanol and stained with Giemsa. The percentages of infected macrophages among treated and non-treated cells were determined by light microscopy.

[8] = cited from earlier work
[9] = tested on: rat skeletal myoblast cells (L6); experiment: Cytotoxicity on rat skeletal myoblast cells (L6); format: cell-based
[10] = tested on: rat skeletal myoblast cells (L6); conditions: cited from earlier work
[11] = tested on: Mycobacterium tuberculosis H37Ra; set-up: method as in PMID 3653383; conditions: cited from earlier work
AChE = tested on: AChE; set-up: method as in PMID 3707621, PMID 25924599, PMID 21459491; conditions: cited from earlier work
[12] = set-up: method as in PMID 4954156, PMID 4633870; conditions: bacteria not specified; cited from earlier work
[13] = tested on: intramacrophagic L. tropica amastigotes; set-up: method as in PMID 6312823; conditions: cited from earlier work
BChE = tested on: BChE; set-up: method as in PMID 3707621, PMID 25924599, PMID 21459491; conditions: cited from earlier work
[14] = Leishmania tropica, read-out: IC50 L. tropica, promastigotes, MTT, 72 h
[15] = intramacrophagic amastigotes in THP-1 macrophages, 72 h, mean ± SD
[16] = i.p., doses up to 200–350 mg/kg, once a day for five consecutive days, mice inoculated with leukemia P388 cells
[17] = read-out: IC50 L. tropica, promastigotes, MTT

| Structure (SMILES) | IC50 [2, 14] [µM] | Ratio IC50 Miltef./IC50 Compd. (L. tropica) [2] | SI (THP-1) (PMA-differentiated THP-1) | S.I. L. tropica (Vero-76 cells) | CC50 [5] [µM] | IC50 [6] [µM] | Ratio IC50 Miltef./IC50 Compd. (L. infantum) [6] | S.I. L. infantum (Vero-76 cells) | also measured |
| --- | --- | --- | --- | --- | --- | --- | --- | --- | --- |
| O=c1c2ccccc2sc2c(CO)ccc(CCN3CCCCC3)c12 [1-(piperidinoethyl)-4-hydroxymethylthioxanthen-9-one] |  |  |  |  |  |  |  |  | IC50 (L. donovani): 9.1 µM |
| CN(C)CCC=C1c2ccccc2CCc2ccccc21 [Amitriptyline] |  |  |  |  |  |  |  |  | inhibition of choline uptake into rat brain synaptosomes [1]: completely ineffective |
| Cc1ccc(NC[C@@H]2CCCN3CCCC[C@H]23)c2c(=O)c3ccccc3sc12 [Compound 1] | 3.36 ± 1.53 | 12.9 | 8.0 | 7.0 | 23.5 ± 1.8 | 3.87 ± 1.53 | 8.1 |  | MIC Staphylococcus aureus (Staphylococcus aureus): 2.5 µg/mL; MIC Staphylococcus aureus (Staphylococcus aureus; converted from µg/mL): 6.63 µM; MIC Mycobacterium tuberculosis [3]: 1.25 µg/mL; MIC Mycobacterium tuberculosis ([3]; converted from µg/mL): 3.32 µM; CC50 [4]: 28 ± 8 µM; MIC Bacillus subtilis (Bacillus subtilis): 2.5 µg/mL; MIC Bacillus subtilis (Bacillus subtilis; converted from µg/mL): 6.63 µM; IC50 [7, 15]: 3.49 ± 0.18 µM; mortality [8, 16]: no mortality |
| Cc1ccc(NC[C@@H]2CCC[N+]3(C)CCCC[C@H]23)c2c(=O)c3ccccc3sc12.[I-] (stereo partly drawn) [Compound 4, (1S,9aR)-5-methyl-1-{[(4-methyl-9-oxo-9H-thioxanthen-1-yl)amino]methyl}-decahydroquinolizin-5-ium iodide] | 17.8 ± 5.61 | 2.4 |  |  |  | 13 ± 2.8 | 2.4 |  | melting point: 147 to 150 °C |
| COc1ccc2sc3c(C)ccc(NCCC4CCCN5CCCCC45)c3c(=O)c2c1 (stereo not shown) [Compound 6] | 28.4 ± 14.3 | 1.5 |  |  |  | > 46 | <0.7 |  | selectivity index (SI) L6 vs L. infantum ([9]; CC50 L6 / IC50 L. infantum): ≤ 3; selectivity index (SI) L6 vs L. tropica ([9]; CC50 L6 / IC50 L. tropica): 4.8; CC50 [10]: 137 µM; mortality [8, 16]: no mortality |
| Nc1ccc(NCCC2CCCN3CCCCC23)c2c(=O)c3ccccc3sc12 (stereo not shown) [Compound 14, 4-amino-1-(quinolizidinylethyl)aminothioxanthen-9-one] | 3.8 ± 1.82 | 11.4 | 10.2 | 16.2 | 61.4 ± 2.6 | 3.63 ± 0.78 | 8.6 | 16.9 | CC50 [4]: 21.7 ± 8.83 µM; selectivity index (SI), range over both Leishmania species (Vero-76 cells): 16–24; IC50 [7, 15]: 2.13 ± 1.35 µM; mortality ([8]; mouse, in vivo, 260 mg/kg): no mortality |
| C(=C1c2ccccc2-c2ccccc21)[C@@H]1CCCN2CCCC[C@H]12 [Compound 17, 9-(quinolizidinylmethylidene)fluorene] | 3.5 | 12.4 | 20.0 | 23.9 | 83.4 ± 3 | 4.35 ± 0.37 | 7.2 | 19.2 | IC50 [2, 17]: 3.49 ± 1.02 µM; CC50 [4]: 53.9 ± 3.98 µM; selectivity index (SI), range over both Leishmania species (Vero-76 cells): 16–24; MIC Mycobacterium tuberculosis H37Ra [11]: 0.49 µM (≈ 0.155 µg/mL); IC50 [7, 15]: 2.7 ± 0.68 µM |
| C(=C1c2ccccc2CCc2ccccc21)[C@@H]1CCCN2CCCC[C@H]12 [Compound 18, lupinylidene dibenzocycloheptadiene] | 24.2 ± 3.58 | 1.8 |  |  |  | 25.2 ± 1.92 | 1.24 |  | inhibition of choline uptake into rat brain synaptosomes [1]: inhibit the choline uptake |
| C[N+]12CCCC[C@@H]1[C@H](C=C1c3ccccc3-c3ccccc31)CCC2 (stereo partly shown) [Compound 19] | 10.5 ± 2.69 | 4.1 |  | 7.9 | 82.7 ± 4.7 | 16.4 ± 0.59 | 1.90 | 5.0 | MIC Mycobacterium tuberculosis H37Ra [11]: 83.9 µM |
| C[N+]12CCCC[C@@H]1[C@H](C=C1c3ccccc3CCc3ccccc31)CCC2.[I-] (stereo partly drawn) [Compound 20, (1S,9aR)-1-[(10,11-dihydro-5H-dibenzo[a,d][7]annulen-5-ylidene)methyl]-5-methyl-decahydroquinolizin-5-ium iodide] | 7.21 ± 3.52 | 6.0 |  | 12.5 | 89.9 ± 3.7 | 8.71 ± 0.68 | 3.58 | 10.3 | melting point: 283 to 286 °C |
| CCN(CC)CCNc1ccc(C)c2sc3ccccc3c(=O)c12 [Lucanthone] | 2.5 | 16.8 | 4.4 | 4.8 |  | 3.5 ± 1.17 | 8.9 | 3.5 | IC50 [2, 17]: 2.57 ± 1.03 µM; IC50 AChE inhibition (AChE): low micromolar and sub-micromolar range; CC50 ([4]; PMA-differentiated THP-1, mean ± SD, read-out: THP-1 CC50): 15.2 ± 0.27 µM; CC50 ([5]; Vero-76 monolayers, CC50 ± SD, read-out: CC50 Vero-76): 12.4 ± 2.1 µM; MIC (antibacterial activity) [12]: 30 to 60 µM; IC50 against intramacrophagic L. tropica amastigotes [13]: 0.93 µg/mL (≈ 2.73 µM); IC50 ([13]; converted value in brackets, read-out: IC50 against intramacrophagic L. tropica amastigotes): 2.47 µM; IC50 ([7]; THP-1, 72 h): 3.43 ± 0.93 µM; IC50 BChE inhibition (BChE): low micromolar and sub-micromolar range |
| NNC(=O)c1ccncc1 [isoniazide, reference compound] |  |  |  |  |  |  |  |  | MIC Mycobacterium tuberculosis H37Ra [11]: 0.14 to 0.28 µM |
